Experimental data: patent US11707431B2, “Dental strips for the delivery of specifically targeted antimicrobial peptides” (C3 Jian, LLC, priority 2017, dated 2023)
No end group written: not given here.

Tested on: not given
Test: not given
Conditions: in vivo; cited from earlier work

Compound | reduce cavities
OC[C@@H](O)[C@H](O)[C@@H](O)CO [Xylitol] | up to 80%

Same assay, conditions: long-term; cited from earlier work

Compound | long-term reduction in caries
OC[C@@H](O)[C@H](O)[C@@H](O)CO [Xylitol] | 88-93%

Tested on: S. mutans
Test: not given
Conditions: Streptococcus mutans

Compound | % viability remaining
TAFRLANRSATQALGK [F2/6/10-A2/6/10_C16G2] | 78%
TFFRLFNRSFTQALAK [G15-A15_C16G2] | 47%
TFFRLFNRSFTQALDK [G15-D15_C16G2] | 47%
TFFRLFNRSFTQALFK [G15-F15_C16G2] | 29%
TFFRLFNRSLTQALGK [F10-L10_C16G2] | 30%
TFFRLFNRSQTQALGK [F10 to Q10_C16G2] | 73%
TFFRLLNRSFTQALGK [F6-L6_C16G2] | 43%
TFFRLQNRSFTQALGK [F6 to Q6_C16G2] | 79%
TLFRLFNRSFTQALGK [F2-L2_C16G2] | 63%
TLFRLLNRSLTQALGK [F2F6F10-L2L6L10_C16G2] | 26%
TQFRLFNRSFTQALGK [F2 to Q2_C16G2] | 47%
TQFRLQNRSQTQALGK [F7/11/15 sub Q_C16G2] | 93%
TWFRLFNRSFTQALGK [F2-W2_C16G2] | 45%

Tested on: MRSA
Test: MIC against MRSA
Type: cell-based
Conditions: not given

Compound | MIC
FESKILNASKELDKEKKVNTALSFNSHQDFAKAYQNGKI [PF-606] | MRSA, 50 μM
FIRKFLQKLHL [K-16] | MRSA, 25 μM
GSVIKKRRKRMAKKKHRKLLKKTRIQRRRAGK [PF-527] | MRSA, 50 μM
KFQGEFTNIGQSYIVSASHMSTSLNTGK [PF-583] | MRSA, 50 μM
MGIIAGIIKFIKGLIEKFTGK [PF-006] | MRSA, 50 μM
MRFGSLALVAYDSAIKHSWPRPSSVRRLRM [PF-672] | MRSA, 1.56 μM
NYAVVSHT [PF-209] | MRSA, 50 μM
RESKLIAMADMIRRRI [PF-545] | MRSA, 50 μM
VLPFPAIPLSRRRACVAAPRPRSRQRAS [PF-168] | MRSA, 50 μM
